Values joined by “and” are separate entries in the source; they are usually repeats but may differ in a detail not shown here. Identical values can stand only once. Counter-ions that a name gives are not always drawn.

Test [1] addresses T1, HSA (Homo sapiens, UniProt P02768). Nature of the test: SEB test, development cohort: 45 cirrhotic vs 45 control patients. It counts as binding. Particulars: 45 cirrhotic vs 45 controls.
Test [2] addresses T1, HSA. Kind of test: Enhanced binding capacity of serum/HSA: serum of patients with no liver dysfunction spiked with ligand, ultrafiltration, ICP-MS of unbound ligand.
Another test has as its target T2, albumin of rats (Rattus norvegicus, UniProt P02770).
T2 construct: The SEB test was performed in the serum of all groups of rats; from tissue; host or cells: serum of male Wistar rats (ethanol-treated and control)
Kind of test: SEB test applied to serum of ethanol-treated rats. The conditions noted are these: L-thyroxine at 1/5, Au at 1/50. It counts as binding.

Test [3] deals with T1, HSA. Nature of the test: SEB test, discovery cohort: cirrhotic patients vs patients with no liver dysfunction. The format is binding. The conditions noted are these: for sensitivity of discrimination of cirrhotic from control patients / specificity of discrimination of cirrhotic from control patients: discovery cohort, 18 cirrhotic vs 18 controls, HSA/ligand Au 1/100, Cu 1/10, dansylsarcosine 1/5, L-thyroxine 1/10.

The target in test [4] is T1, HSA. Kind of test: Same binding test with Vialebex commercial albumin solution at 200 mg/mL. The conditions noted are these: Vialebex commercial solution of pure HSA.
Test [5] has as its target T1, HSA. Particulars: literature [21]; cited from earlier work.

T1 sequence (P02768 25-609): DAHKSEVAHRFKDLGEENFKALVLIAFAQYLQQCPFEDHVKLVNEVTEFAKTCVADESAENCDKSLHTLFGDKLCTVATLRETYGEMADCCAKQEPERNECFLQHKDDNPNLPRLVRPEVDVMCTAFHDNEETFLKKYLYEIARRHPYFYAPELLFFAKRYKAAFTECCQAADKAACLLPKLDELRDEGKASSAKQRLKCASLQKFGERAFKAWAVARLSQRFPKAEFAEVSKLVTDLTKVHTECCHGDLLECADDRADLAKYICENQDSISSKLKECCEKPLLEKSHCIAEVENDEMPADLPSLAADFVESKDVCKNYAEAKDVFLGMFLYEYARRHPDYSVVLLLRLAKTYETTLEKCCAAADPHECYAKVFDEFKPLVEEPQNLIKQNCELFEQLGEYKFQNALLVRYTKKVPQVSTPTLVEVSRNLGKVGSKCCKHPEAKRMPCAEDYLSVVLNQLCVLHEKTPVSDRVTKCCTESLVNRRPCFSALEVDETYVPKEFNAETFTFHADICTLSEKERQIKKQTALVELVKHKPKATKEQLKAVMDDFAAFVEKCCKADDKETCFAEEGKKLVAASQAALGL
T2 sequence (P02770 25-608): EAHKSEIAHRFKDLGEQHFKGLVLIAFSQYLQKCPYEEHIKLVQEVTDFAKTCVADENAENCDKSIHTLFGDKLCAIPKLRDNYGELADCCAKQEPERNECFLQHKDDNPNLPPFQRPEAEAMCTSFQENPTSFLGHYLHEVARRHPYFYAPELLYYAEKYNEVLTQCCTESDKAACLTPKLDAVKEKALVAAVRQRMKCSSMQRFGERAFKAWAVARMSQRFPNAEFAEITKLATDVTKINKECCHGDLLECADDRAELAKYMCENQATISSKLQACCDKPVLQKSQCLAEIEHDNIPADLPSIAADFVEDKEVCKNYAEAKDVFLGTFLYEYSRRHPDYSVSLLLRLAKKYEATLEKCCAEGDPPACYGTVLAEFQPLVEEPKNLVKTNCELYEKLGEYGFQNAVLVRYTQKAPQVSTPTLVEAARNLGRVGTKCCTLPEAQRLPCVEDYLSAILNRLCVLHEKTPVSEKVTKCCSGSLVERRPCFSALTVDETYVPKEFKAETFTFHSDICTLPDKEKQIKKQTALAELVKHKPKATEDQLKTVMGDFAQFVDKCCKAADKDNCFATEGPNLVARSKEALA

Consider `[Cd]` [Cd], for which, at HSA [1], the “specificity (Sp)” value came to 98%. The “atoms bound per molecule of albumin” value on HSA [2] (serum samples, 100% retention) is ≤ 50 atoms per molecule of albumin. Also, at albumin of rats (group D14 (ethanol for 14 days), Cu, Cd), the “SEB test result in rat serum” value was “positive”.
`O.O.O.[Cl][Au]([Cl])[Cl]` [Au, gold(III) chloride trihydrate]: the “SEB test result in rat serum” value on albumin of rats (as soon as D1 (ethanol for 1 day)) was “positive”.
Turning to `[Cl][Cu][Cl]` [Cu, copper(II) chloride], the “specificity (Sp)” value at HSA [1] is recorded as 98%. For the same compound, the “retention when more Cu was added” value at HSA [2] (above 12 Cu atoms per albumin molecule) is listed as not above 40%. The “Cu atoms per albumin molecule retained on the ultracentrifugation filter” value at HSA [2] (serum of patients with no liver dysfunction, average retention of 95%) is reported as “up to 12 atoms per albumin molecule”. Further, at HSA [2] (up to 12 Cu atoms per albumin molecule), the average retention turned out to be 95%. At HSA [3] (control patients, mean), the “Ratio Cu/HSA, reference value” turned out to be 4.3 μM/μg/L. In addition, at HSA [3], the “sensitivity of discrimination of cirrhotic from control patients” value is listed as 100%. Besides, the “specificity of discrimination of cirrhotic from control patients” value at HSA [3] is 72%. Also, the “Ratio Cu/HSA (ligand in the filtrate / albumin)” value at HSA [3] (individual cirrhotic patients 1-18, one value per patient, HSA/Cu 1/10) was 7.5 μM/μg/L and 4.97 μM/μg/L and 9.33 μM/μg/L and 15.85 μM/μg/L and 5.5 μM/μg/L and 10.45 μM/μg/L and 9.07 μM/μg/L and 6.86 μM/μg/L and 9.64 μM/μg/L and 7.54 μM/μg/L and 6.74 μM/μg/L and 4.76 μM/μg/L and 5.59 μM/μg/L and 8.25 μM/μg/L and 10.68 μM/μg/L and 11.02 μM/μg/L and 5.26 μM/μg/L and 5.56 μM/μg/L; at HSA [3] (patient 19, NASH without cirrhosis) it was 5.1 μM/μg/L. Also, the ligand/HSA retention ratio on HSA [4] was found to be 40. Also, at HSA [5], the “atoms of Cu HSA is able to bind (reported)” value is on record as “less than 2 atoms”.
With `CN(C)c1cccc2c(S(=O)(=O)N(C)CC(=O)O)cccc12` [dansylsarcosine, Dansylsarcosine Piperidinium Salt], on HSA [1], the “specificity (Sp)” value worked out at 98%. In addition, the “molecules bound per molecule of albumin” value on HSA [2] (serum samples, 100% retention, L-thyroxine not testable above 1/10 ratio (dissolution problems)) is on record as ≤ 2.5 molecules per molecule of albu. In addition, the “Ratio DS/HSA, reference value” on HSA [3] (control patients, mean) was 0.23 μM/μg/L. At HSA [3], the “sensitivity of discrimination of cirrhotic from control patients” value was found to be 100% and the “specificity of discrimination of cirrhotic from control patients” value was 100%. Further, at HSA [3] (individual cirrhotic patients 1-18, one value per patient, HSA/dansylsarcosine 1/5, listed as DS), the “Ratio DS/HSA (ligand in the filtrate / albumin)” value is 4.77 μM/μg/L and 2.26 μM/μg/L and 5.71 μM/μg/L and 7.58 μM/μg/L and 0.78 μM/μg/L and 16.38 μM/μg/L.

These data come from US20220018852A1, “METHODS AND KITS FOR DETECTING LIVER DYSFUNCTION IN A SUBJECT” (priority 2018, published 2022).
